What was measured:
Type in all cases: biochemical
[1] = biological target: T1, LATS1 (Homo sapiens, UniProt O95835); assay: RBC HotSpot kinase assay (33P-ATP, P81 filter-binding), LATS1; settings: biochemical kinase inhibition; read-out: LATS1 IC50
T1 sequence (O95835 1-1130): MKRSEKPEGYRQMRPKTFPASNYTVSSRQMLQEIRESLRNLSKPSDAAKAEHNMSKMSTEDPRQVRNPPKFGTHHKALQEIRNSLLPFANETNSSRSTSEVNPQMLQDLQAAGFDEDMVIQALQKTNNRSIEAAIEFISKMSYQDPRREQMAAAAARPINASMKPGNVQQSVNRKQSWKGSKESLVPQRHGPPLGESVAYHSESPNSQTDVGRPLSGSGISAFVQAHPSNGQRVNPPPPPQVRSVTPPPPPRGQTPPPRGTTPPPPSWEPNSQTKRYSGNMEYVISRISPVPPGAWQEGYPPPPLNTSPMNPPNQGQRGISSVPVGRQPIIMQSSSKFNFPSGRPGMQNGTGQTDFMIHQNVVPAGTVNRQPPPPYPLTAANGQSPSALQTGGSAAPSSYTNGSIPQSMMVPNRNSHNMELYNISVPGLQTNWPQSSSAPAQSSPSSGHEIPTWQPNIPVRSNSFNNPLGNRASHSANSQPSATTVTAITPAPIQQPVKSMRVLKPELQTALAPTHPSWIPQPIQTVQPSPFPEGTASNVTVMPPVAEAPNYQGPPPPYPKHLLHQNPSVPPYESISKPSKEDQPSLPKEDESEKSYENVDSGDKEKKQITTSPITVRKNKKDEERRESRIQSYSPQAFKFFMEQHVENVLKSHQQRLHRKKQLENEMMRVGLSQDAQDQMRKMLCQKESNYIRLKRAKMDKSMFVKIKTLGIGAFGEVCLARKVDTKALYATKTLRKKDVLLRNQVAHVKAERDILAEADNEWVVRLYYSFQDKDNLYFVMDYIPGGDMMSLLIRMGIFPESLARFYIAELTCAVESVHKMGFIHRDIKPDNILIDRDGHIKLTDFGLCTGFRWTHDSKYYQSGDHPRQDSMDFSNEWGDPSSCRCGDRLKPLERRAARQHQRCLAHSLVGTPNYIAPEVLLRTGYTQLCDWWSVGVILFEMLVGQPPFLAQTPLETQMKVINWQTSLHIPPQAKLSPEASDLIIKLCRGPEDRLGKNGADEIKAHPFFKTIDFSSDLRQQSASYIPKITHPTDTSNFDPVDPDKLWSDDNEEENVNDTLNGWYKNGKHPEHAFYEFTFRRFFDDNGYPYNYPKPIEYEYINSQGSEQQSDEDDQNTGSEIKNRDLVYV
Method in brief: (§1)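 Radiometric 33P-ATP kinase reaction in 20 mM Hepes pH 7.5, 10 mM MgCl2, 1 mM EGTA, 0.01% Brij35, 0.02 mg/ml BSA, 0.1 mM Na3VO4, 2 mM DTT, 1% DMSO. Compound preincubated with kinase and substrate 20 min, then 2 h at room temperature; P81 filter-binding read-out. IC50 (nM) from 10-point singlet curves.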

[2] = biological target: T2, LATS2 (Homo sapiens, UniProt Q9NRM7); assay: RBC HotSpot kinase assay (33P-ATP, P81 filter-binding), LATS2; settings: biochemical kinase inhibition; read-out: LATS2 IC50
T2 sequence (Q9NRM7 1-1088): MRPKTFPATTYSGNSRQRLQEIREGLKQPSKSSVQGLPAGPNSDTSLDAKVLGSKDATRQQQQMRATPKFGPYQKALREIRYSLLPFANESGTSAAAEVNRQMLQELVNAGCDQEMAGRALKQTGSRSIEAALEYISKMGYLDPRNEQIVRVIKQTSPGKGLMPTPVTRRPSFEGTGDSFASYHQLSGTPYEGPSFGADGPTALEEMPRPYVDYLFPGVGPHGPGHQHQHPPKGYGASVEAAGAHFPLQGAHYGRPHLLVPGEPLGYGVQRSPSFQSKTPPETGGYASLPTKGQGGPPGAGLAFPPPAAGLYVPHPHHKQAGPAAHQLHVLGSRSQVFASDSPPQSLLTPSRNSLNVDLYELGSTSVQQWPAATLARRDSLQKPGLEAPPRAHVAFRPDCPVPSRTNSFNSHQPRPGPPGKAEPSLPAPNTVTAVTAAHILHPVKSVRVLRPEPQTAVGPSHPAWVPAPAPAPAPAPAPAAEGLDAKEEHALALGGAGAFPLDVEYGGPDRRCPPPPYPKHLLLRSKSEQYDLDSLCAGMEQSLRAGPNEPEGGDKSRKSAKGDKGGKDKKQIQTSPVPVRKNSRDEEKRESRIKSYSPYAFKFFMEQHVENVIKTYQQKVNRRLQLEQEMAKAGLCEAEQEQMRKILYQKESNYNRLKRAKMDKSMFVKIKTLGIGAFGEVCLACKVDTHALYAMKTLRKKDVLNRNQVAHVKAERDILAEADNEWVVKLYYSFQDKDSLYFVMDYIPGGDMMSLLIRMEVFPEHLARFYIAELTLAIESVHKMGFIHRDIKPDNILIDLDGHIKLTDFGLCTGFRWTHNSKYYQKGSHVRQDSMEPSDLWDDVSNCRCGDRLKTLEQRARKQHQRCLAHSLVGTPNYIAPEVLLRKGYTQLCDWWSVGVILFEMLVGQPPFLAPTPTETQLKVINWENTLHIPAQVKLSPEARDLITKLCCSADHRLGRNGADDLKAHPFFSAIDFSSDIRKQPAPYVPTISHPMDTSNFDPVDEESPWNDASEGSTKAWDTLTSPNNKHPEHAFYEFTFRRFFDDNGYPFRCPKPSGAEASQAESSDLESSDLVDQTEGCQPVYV
Method in brief: as §1

[3] = biological target: AKT (Homo sapiens, UniProt P31749); assay: RBC HotSpot kinase assay (33P-ATP, P81 filter-binding), AKT; settings: biochemical kinase inhibition; read-out: AKT IC50
AKT, sequence (P31749 whole entry): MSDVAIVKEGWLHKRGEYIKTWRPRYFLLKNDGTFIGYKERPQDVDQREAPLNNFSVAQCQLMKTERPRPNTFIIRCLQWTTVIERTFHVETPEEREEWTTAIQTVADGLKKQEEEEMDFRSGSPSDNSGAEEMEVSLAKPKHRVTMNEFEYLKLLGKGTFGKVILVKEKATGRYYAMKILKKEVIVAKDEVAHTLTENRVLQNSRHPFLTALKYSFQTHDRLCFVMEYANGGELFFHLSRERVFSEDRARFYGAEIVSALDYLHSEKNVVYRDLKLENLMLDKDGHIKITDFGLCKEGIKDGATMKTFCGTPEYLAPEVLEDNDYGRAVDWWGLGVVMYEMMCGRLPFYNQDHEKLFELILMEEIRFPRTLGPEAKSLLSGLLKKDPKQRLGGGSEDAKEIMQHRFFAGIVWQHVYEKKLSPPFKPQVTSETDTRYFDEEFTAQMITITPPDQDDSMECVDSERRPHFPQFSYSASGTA
Method in brief: as §1

Structure (SMILES): Cc1cc(-c2ccnc3[nH]cc(C#N)c23)cc(F)c1[C@@]1(O)[C@H](C)CN(C(=O)C(N)C(F)F)C[C@@H]1C (stereo partly drawn) [Compound 2019, 4-(4-((3S,4s,5R)-1-(2-amino-3,3-difluoropropanoyl)-4-hydroxy-3,5-dimethylpiperidin-4-yl)-3-fluoro-5-methylphenyl)-1H-pyrrolo[2,3-b]pyridine-3-carbonitrile]
- IC50 [1]: 7 nM
- IC50 [2]: 7 nM
- IC50 [3]: 1220 nM

Structure (SMILES): Cc1cc(-c2ccnc3[nH]cc(C#N)c23)cc(F)c1[C@@]1(O)[C@H](C)CN(C(=O)[C@@H](CO)N(C)C)C[C@@H]1C [Compound 2021, 4-(4-((3S,4S,5R)-1-(dimethyl-D-seryl)-4-hydroxy-3,5-dimethylpiperidin-4-yl)-3-fluoro-5-methylphenyl)-1H-pyrrolo[2,3-b]pyridine-3-carbonitrile]
- IC50 [1]: 5.1 nM
- IC50 [2]: 3.4 nM
- IC50 [3]: 223 nM

Structure (SMILES): Cc1cc(-c2ccnc3[nH]cc(C#N)c23)ccc1[C@@]1(O)[C@H](C)CN(C(=O)[C@@H](CO)N(C)C)C[C@@H]1C [Compound 2022, 4-(4-((3S,4S,5R)-1-(dimethyl-D-seryl)-4-hydroxy-3,5-dimethylpiperidin-4-yl)-3-methylphenyl)-1H-pyrrolo[2,3-b]pyridine-3-carbonitrile]
- IC50 [1]: 5.3 nM
- IC50 [2]: 3 nM
- IC50 [3]: 251 nM

Reference: patent US20250361230A1, “LATS Inhibitors and Uses Thereof” (The USA, as Represented by the Secretary, Dept. of Heath …, priority 2022, published 2025)
